According to US20080207502A1, “Anti-Angiogenic Peptides and Methods of Use Thereof” (SOPHERION THERAPEUTICS, INC., priority 2004, published 2008):

How the values were obtained:
[1] = Biological activity of D-amino acid versions of ST100,038 (assay not specified); settings: ST100,045 tested against ST100,059 and a control
Description: D-amino acid peptides can be made by generating a D-amino acid peptide with the same sequence as a L-amino acid peptide or by preparing a retro inverso form of a peptide. ST100,045 (SEQ ID NO.: 31) has the same sequence as ST100,038 (SEQ ID NO.: 29) was tested against ST100,059 (SEQ ID NO.: 30) which is the retro inverso version of ST100,038 and a control.

[2] = system: Bovine Retinal Endothelial Cells (BRE); assay: VEGF-mediated survival/proliferation of BRE cells (WST1); format: cell-based; settings: increasing doses, FIG. 5
Description: (§1) The anti-angiogenic activities of the peptides were tested by measuring the level of inhibition of VEGF and bFGF mediated survival/proliferation of Bovine Retinal Endothelial Cells (BRE), Human Dermal Microvasculature Endothelial Cells, and Human Umbilical Vein Endothelial Cells, all of which are standard cell lines used to test anti-angiogenic compounds.
Bovine retinal endothelial (BRE) cells were maintained in Cambrex EG2 media. For non-adherent cell assays, on day one cells were starved for either 6 hours or overnight, then trypsinized and plated in 96-well plates in 100 μl of Optimem plus 1% fetal bovine serum (FBS). One hundred μl of Optimem plus 1% FBS was added to the wells containing, where appropriate, VEGF to a final concentration of 25 ng/ml, and the various peptides to final concentrations as described. For adherent cells, cells were plated in 96-well plates in complete media, allowed to adhere overnight, washed in starvation media (Optimem plus 1% FBS) and then starved during the day. At the end of the day, 100 μl of Optimem plus 1% FBS was added to the wells containing, where appropriate, VEGF to a final concentration of 25 ng/ml and the various peptides to final concentrations as described.
(§2) In all cases, after 72 hours incubation, the amount of live cells in each well was measured with the WST1 assay (Roche).

[3] = system: RPMI-8226 human myeloma xenografts; assay: RPMI-8226 human myeloma subcutaneous xenograft model in scid mice; format: in vivo; settings: vs untreated controls, FIG. 16
Description: Anti-tumor efficacy of test peptides was evaluated against RPMI-8226 human myeloma xenografts implanted subcutaneously (sc) in severe compromised immunodeficient (scid) mice.
Studies generally consisted of randomly-assigned groups of 8 or 10 mice per group, which were implanted sc with myeloma fragments (30-40 mg). In addition to groups tested with test peptides, studies usually included a vehicle-treated control group and a positive control group treated with an agent known to be active in the RPMI-8226 model. In one type of schedule, mice were treated IP with either vehicle or test peptides starting one day after tumor implantation (implantation day defined as Day 0). Test peptides and vehicle were generally administered IP daily for 3-4 weeks.
Dosing solutions of the test peptides were prepared weekly and kept at −20° C. between injections. […] Each tumor was measured by caliper in two dimensions and converted to tumor mass using the formula for a prolate ellipsoid (a X b^2/2), where a is the longer dimension and b is the smaller dimension, and assuming unit density (1 mm^3=1 mg). Tumor measurements were recorded twice weekly. Body weights were also recorded twice weekly. Anti-tumor activity was assessed by the delay in tumor growth of the treated groups in comparison to the vehicle-treated control group, partial and complete regressions, and tumor-free survivors. […]

[4] = Heparin binding activity by liquid chromatography on Hi Trap Heparin HP column (NaCl elution); settings: step gradient 500-1000 mM NaCl in 10 mM NaH2PO4 pH 7
Excerpt: Liquid chromatography was used to determine the relative levels of heparin binding activity of the individual heparin binding domains and of the anti-angiogenic miniproteins that contains them. In this assay, the strength of the heparin binding activity is proportional to the amount of NaCl that is required to elute the peptide bound to the heparin column. Peptides with low binding activity are eluted with lower NaCl concentration, whereas higher concentrations of NaCl are required for peptides with higher binding activity.
Hi Trap Heparin HP column (1 ml, Amersham Biosciences) was equilibrated with 10 column volumes (CV) of equilibration (EQ) buffer=10 mM NaH2PO4pH 7. All buffers were loaded onto columns via syringes. 500 μl fractions are collected (flow rate=1 ml/minute). 500 μg of peptide (1 mg/ml, resuspended in EQ buffer) was added to each column and the flow through was collected for analysis. The columns were then washed with 3 CV of EQ buffer. Peptides are then eluted with a step gradient of 500, 625, 750, 875 mM NaCl in EQ buffer, 2 CV per each step. A final step of 3 CV of 1000 mM NaCl in EQ buffer was collected in 500 μl fractions. The A210 nm was measured using EQ and elution buffers as blanks.

[5] = system: B16 melanoma tumor; assay: Subcutaneous B16 melanoma tumor model in vivo; design: species or system mouse; settings: 20 mg/kg daily IP, vs untreated controls, FIG. 12
Description: Because of the importance of the angiogenic process for tumorigenesis, miniproteins as described herein, were hypothesized to show good anti-tumor activity. The peptides of the invention were tested in an in vivo model of anti-tumor activity. This model compares the growth of sub cutaneous B16 melanoma tumor in vivo either untreated or treated with various amount of miniproteins described in this application. This model is widely accepted in the art as a model to test the anti-tumor activity of compounds that inhibit tumor growth because they have anti-angiogenic activity.
Male C57BL/6 mice were obtained with a mean body weight of 20±2 g. Mouse B16-F1 melanoma cells were implanted subcutaneously (5×10^5 cell per animal). Peptides (formulated in water) were administered ip daily at the amount indicated starting the day after cells injection. In general, tumors became palpable around 9 days after injection of cells. Tumor were then measured every 2 days.

[6] = system: human dermal microvasculature endothelial cells; assay: VEGF mediated survival/proliferation in human dermal microvasculature endothelial cells; format: cell-based; settings: 30, 100, and 200 μg/ml, FIG. 8
Description: as §1, §2
(§3) In a further experiment, the anti-angiogenic activity of peptide ST100,061 (SEQ ID NO.: 3), a derivative of ST100,032 (SEQ ID NO.: 1), at concentrations of 30, 100, and 200 μg/ml was tested by measuring the level of inhibition of VEGF and bFGF mediated survival/proliferation in human dermal microvasculature endothelial cells.

[7] = system: human dermal microvasculature endothelial cells; assay: bFGF mediated survival/proliferation in human dermal microvasculature endothelial cells; format: cell-based; settings: 30, 100, and 200 μg/ml, FIG. 8
Description: as §1, §2, §3

[8] = system: mouse leukemia L1210 cells; assay: Tumor cell proliferation (WST-1), L1210; format: cell-based; settings: FIG. 11
Description: Peptides to be tested were prepared at a stock concentration of 10 mM in sterile phosphate buffered saline. Cancer cell lines obtained from the American Type Culture Collection (MG-63, HT1080, A498, BxPC3, 786-0, PC-3, B16F1, B16F10, P388D1, Jurkat, MOLT4, THP-1, U-937, L1210, RPMI 8226, NCI H929, U266B1, K562) were cultured under appropriate conditions as described in the literature. Cell culture media and reagents were obtained from ATCC (Manassas, Va.), Invitrogen (Carlsbad, Calif.) or Mediatech (Herndon, Va.). Exponentially growing cultures were used for cell proliferation assays. Adherent cells were plated at a concentration of 100000 cells per milliter in growth media overnight (18-24 h) and treated the next day in a low serum media (growth media with 1% FBS for MG-63, HT1080, A498, BxPC3, PC-3, B16F1, B16F10. 786-0 cells were treated in media with 5% FBS). Suspension cell lines (P388D1, Jurkat, MOLT4, THP-1, U-937, L1210, RPMI 8226, NCI H929, U266B1, and K562) were diluted to a concentration of 100,000 cells per ml and treated on the same day with peptides. Peptides were diluted in treatment media and cells were treated for 48 or 72 hours depending on the cell line. Each dose was tested in triplicate for each experiment, and experiments were repeated for a minimum of three discrete times. After incubation, the relative number of cells was determined using WST-1 (Roche Applied Science). A 9.5 μl aliquot of WST-1 was added to each well. The plate was immediately read at 440 nm using a Bio-Tek PowerWave XS microplate reader, incubated for 2-3 hours at 37° C. and then read again. Cell proliferation was determined as the percent of the control cell proliferation. The absorbance of each well at time 0 was subtracted from the value of the final reading. Afterwards the blank values were averaged and subtracted from each test and control value. Finally, each test absorbance was divided by the average of the control absorbances and multiplied by 100 to obtain the percent of control. […]

[9] = system: Human Umbilical Vein Endothelial Cells; assay: bFGF-mediated survival/proliferation of human umbilical vein endothelial cells (WST1); format: cell-based
Description: as §1
Human umbilical cord endothelial (HUVEC) cells were maintained in Cambrex EGM-2MV media. On day one, cells were starved overnight in 1% FBS in M200 media (Cascade Biologicals). The morning after, the media were replaced with serum-free media (control) or media containing 25 ng/ml of human VEGF165 and the various peptides to final concentrations as described.
as §2

[10] = system: L1210 murine leukemia; assay: L1210 murine leukemia intravenous model in vivo; design: species or system mouse; settings: dosed IP, DBA/2 mice, FIG. 15a
Description: Antitumor activity of test peptides, administered intraperitoneally (IP), were evaluated against L1210 murine leukemia cells implanted intravenously (IV) in DBA/2 mice.
Studies generally consisted of randomly-assigned groups of 8 mice per group, which were inoculated IV with 1×10^5 cells per mouse from an in vivo leukemia cell line. In addition to groups tested with test peptides, studies usually included a vehicle-treated control group and a positive control group treated with an agent known to be active in the L1210 leukemia model. Starting one day after tumor inoculation (inoculation day defined as Day 0), mice were treated IP with either vehicle or test peptides in various schedules. Generally this consisted of treatment every other day for approximately 1 week (e.g., Days 1, 3, 5 and 7). A positive agent (e.g., cyclophosphamide) was usually given as a single IP injection on Day 1. All dosing solutions were prepared on each day of treatment. Survival was monitored daily and body weights were measured twice weekly. Anti-tumor activity was assessed by the increase in lifespan of the treated groups in comparison to the vehicle-treated control group. Studies with the L1210 leukemia model were limited to 30 days.

[NaCl] for elution [4] [mM] | Sequence | biologically active [1] | inhibition of VEGF stimulation [2] | inhibition of tumor growth ([3]; 100 mg/kg daily IP) | inhibition of tumor growth [5] | inhibition of VEGF mediated survival/proliferation [6] | inhibition of bFGF mediated survival/proliferation [7] | blocked cell proliferation or induced cell death [8] | inhibition of bFGF mediated survival ([9]; compared with ST100,061, FIG. 9) | inhibition of bFGF mediated survival ([9]; comparison of several peptides, FIG. 10) | mice (cured mice) survived longer than 30 days [10] | survival [10] | inhibition of tumor growth ([3]; 25 mg/kg daily IP)
0 | PSQSSHPPLSTA (listed as Homo sapiens) [ST100,059] | biologically active | inhibited with increasing doses | does not inhibit tumor growth | clearly inhibit tumor growth |  |  |  |  |  |  |  | 
 | PYDGRGDSVVYGLRKKKAARGRRAARGRR (listed as Homo sapiens) [ST100,061, a derivative of ST100,032] |  |  |  | may be less active | effective in inhibiting both VEGF and bFGF | effective in inhibiting both VEGF and bFGF |  |  |  |  |  | 
 | RRGRAARRGRAAKKKRLGYVVSDGRGDYP [ST100,064] |  |  |  |  |  |  | able to block cell proliferation and induce cell death | as effectively as ST100,061 | the most active in inhibiting bFGF stimulation | Sixty to eighty percent | statistically significant increases in survival | able to inhibit tumor growth
